Experimental data published in ChEMBL document CHEMBL4041532, “Zinc-Metalloproteinase Inhibitors: Evaluation of the Complex Role Played by the Zinc-Binding Group on Potency and Selectivity” (J Med Chem, 2017).
Calls of active or inactive are those of the source. The calls are words filed in the database; no cut-off is given here.

What was measured:
[1] = target: Macrophage metalloelastase (Homo sapiens) (UniProt P39900); assay: Ratio of Ki for human MMP12 catalytic domain (Met105 to Lys263 residues) at pH 9.5 to Ki for human MMP12 catalytic domain (Met105 to Lys263 residues) at pH 6
Macrophage metalloelastase (Homo sapiens), sequence (P39900 106-470 limits assumed): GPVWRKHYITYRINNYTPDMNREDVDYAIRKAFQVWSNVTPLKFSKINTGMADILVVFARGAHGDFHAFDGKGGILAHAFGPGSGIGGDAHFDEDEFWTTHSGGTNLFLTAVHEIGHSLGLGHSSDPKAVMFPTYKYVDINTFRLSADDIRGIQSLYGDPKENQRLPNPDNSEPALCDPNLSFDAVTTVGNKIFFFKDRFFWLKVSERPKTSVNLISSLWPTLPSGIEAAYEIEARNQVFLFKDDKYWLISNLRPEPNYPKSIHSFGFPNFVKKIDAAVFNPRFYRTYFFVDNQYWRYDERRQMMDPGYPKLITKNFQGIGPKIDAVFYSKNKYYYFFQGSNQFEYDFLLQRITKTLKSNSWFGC

Stromelysin-2 = Stromelysin-2 (Homo sapiens, UniProt P09238); assay: Inhibition of human MMP10 catalytic domain using Mca-Pro-Leu-Gly-Leu-Dpa-Ala-Arg-NH2 fluorogenic substrate by spectrophotometric analysis
Stromelysin-2, sequence (P09238 whole entry, the tested form may be a part): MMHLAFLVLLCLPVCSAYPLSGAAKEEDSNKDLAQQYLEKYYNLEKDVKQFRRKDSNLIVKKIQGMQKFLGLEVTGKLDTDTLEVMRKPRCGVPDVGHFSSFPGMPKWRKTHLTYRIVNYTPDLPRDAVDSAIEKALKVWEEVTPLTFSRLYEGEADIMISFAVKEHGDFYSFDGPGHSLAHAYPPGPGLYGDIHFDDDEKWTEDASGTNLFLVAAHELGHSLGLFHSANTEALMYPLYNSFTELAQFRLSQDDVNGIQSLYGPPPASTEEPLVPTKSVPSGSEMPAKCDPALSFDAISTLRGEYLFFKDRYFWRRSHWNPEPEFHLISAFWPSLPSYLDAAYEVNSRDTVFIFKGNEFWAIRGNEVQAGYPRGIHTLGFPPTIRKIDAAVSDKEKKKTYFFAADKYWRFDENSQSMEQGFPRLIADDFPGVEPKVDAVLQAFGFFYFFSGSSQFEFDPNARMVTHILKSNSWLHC

Collagenase 3 = Collagenase 3 (Homo sapiens, UniProt P45452); assay: Inhibition of human MMP13 catalytic domain using Mca-Pro-Leu-Gly-Leu-Dpa-Ala-Arg-NH2 fluorogenic substrate by spectrophotometric analysis
[2] = target: 72 kDa type IV collagenase (Homo sapiens) (UniProt P08253); assay: Inhibition of human MMP2 catalytic domain using Mca-Pro-Leu-Gly-Leu-Dpa-Ala-Arg-NH2 fluorogenic substrate by spectrophotometric analysis
72 kDa type IV collagenase (Homo sapiens), sequence (P08253 110-660 limits assumed): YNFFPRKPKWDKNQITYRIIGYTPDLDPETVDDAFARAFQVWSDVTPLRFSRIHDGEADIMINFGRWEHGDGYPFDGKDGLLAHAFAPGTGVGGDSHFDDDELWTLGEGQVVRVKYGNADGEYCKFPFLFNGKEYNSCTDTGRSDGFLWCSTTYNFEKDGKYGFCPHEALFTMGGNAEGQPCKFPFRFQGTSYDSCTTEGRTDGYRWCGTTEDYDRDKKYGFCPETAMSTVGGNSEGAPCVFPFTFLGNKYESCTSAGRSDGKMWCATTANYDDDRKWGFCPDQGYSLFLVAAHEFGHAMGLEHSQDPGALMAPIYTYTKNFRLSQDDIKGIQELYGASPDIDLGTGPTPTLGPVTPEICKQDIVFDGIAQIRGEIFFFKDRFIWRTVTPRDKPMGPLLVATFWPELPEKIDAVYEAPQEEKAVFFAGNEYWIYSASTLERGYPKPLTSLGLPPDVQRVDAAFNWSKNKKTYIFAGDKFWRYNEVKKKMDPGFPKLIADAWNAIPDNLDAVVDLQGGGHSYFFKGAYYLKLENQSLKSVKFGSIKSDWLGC

Activity [2] | Activity (Collagenase 3) | Compound | Ratio Ki [1] | Ki (Stromelysin-2) | Ki (Collagenase 3)
– | – | NC(=O)[C@H](CCC(=O)O)NC(=O)[C@H](CCC(=O)O)NC(=O)[C@H](Cc1cc(-c2ccc(-c3cccc(Cl)c3)cc2)no1)CP(=O)(O)c1ccc(Br)cc1 | 1100 | 149 nM | 139 nM
– | – | NC(=O)[C@H](CCC(=O)O)NC(=O)[C@H](CCC(=O)O)NC(=O)[C@@H](CC(=O)NO)Cc1cc(-c2ccc(-c3cccc(Cl)c3)cc2)no1 | – | 1.4 nM | 0.008 nM
Active | Active | NC(=O)[C@H](CCC(=O)O)NC(=O)[C@H](CCC(=O)O)NC(=O)[C@@H](CC(=O)O)Cc1cc(-c2ccc(-c3cccc(Cl)c3)cc2)no1 | 980 | – | –
